The target in test [1] is β-ribosidase. Description: β-ribosidase inhibition assay with DHF-riboside substrate, bacterial lysate. The note with it: for threshold value for the inhibitor concentration over which no inhibition is observed: lysate of Salmonella sp.35664, DHF-riboside, over a 24 hour period. It counts as biochemical, Salmonella sp.35664. As to the method: (§1) The hydrolysis of β-riboside under catalysis by β-ribosidases features an oxocarbenium ion transition state, similar to nucleoside hydrolases, nucleoside phosphorylases and related enzymes. The β-ribosidase inhibitory properties of 6, 7 and 8 were evaluated using 3′,4′-dihydroxyflavone-4′-β-D-ribofuranoside 16 (DHF-riboside) as the substrate and bacterial lysates or whole cells as the source of β-ribosidase. The hydrolysis of this chromogenic substrate can be catalyzed by β-ribosidases to release 3′,4′-dihydroxyflavone, which forms a highly colored chelate with iron.^23
(§2) Compounds 6-8 were evaluated for their ability to inhibit the action of β-ribosidases produced by Gram negative bacteria. There are no commercially available β-ribosidases and it is the usual course to use intrinsic ribosidase activities from actual bacteria or bacterial cell lysates. Ribosidase inhibition assays were performed using Salmonella sp.35664 to produce β-ribosidase enzymes. Both whole cells and lysed bacteria were tested. Ribosidase activity is indicated by a purple color formed by complexation of the freed phenol with ferric ions. FIGS. 7A and 7B are (7A) absorbance of the assay mixture produced by a lysate of Salmonella sp.35664 with 3′,4′-dihydroxyflavone-4′-β-D-ribofuranoside in the presence of 6 in concentrations from 0 to 15 μg/μL over a 24 hour period. (7B) Absorbance of the assay mixture in the presence of 7. Note that the differences in inhibition between the two are marginal at higher inhibitor concentrations. Note also that in both cases there is a threshold value of 0.9 μg/μL for the inhibitor concentration over which no inhibition is observed. The more inhibition of the enzyme, the less cleavage of the substrate.
(§3) Inhibitory potency was determined by spectrophotometrically measuring the residual hydrolytic activities of the bacterial produced β-ribosidase 2. The bacterium used to produce β-ribosidase was Salmonella sp.35664, both whole cell and lysed strains. 3′,4′-Dihydroxyflavone-4′-β-D-ribofuranoside 15 (DHF-riboside) was used as substrate. The assay was performed in a PBS buffer at pH 7.0, 37° C. Serial dilutions were made of the inhibitors to a final concentration of 0.2μg/μL to 15μg/μL in each assay solution. The strain was grown to mid exponential phase and removed from the media and rediluted in PBS buffer. Inhibition studies were performed by adding each strain to the respective buffer solutions along with DHF-riboside, ferric ammonium citrate and inhibitors. For compound 6 and 7, 10% DMSO solution was used to increase the solubility. The solutions were incubated at 37° C. and the absorbance of the complex formed between released 3′,4′-dihydroxyflavone and iron was determined at 387 nm at time 15 min, 30 min, 45 min, 60 min, 75 min, 90 min, 105 min, 2 hours, 2.5 hours, 3.0. hours, 4.0. hours, 4.5 hours, 5 hours, 20 hours, and 24 hours.

For test [2], the system named is β-ribosidase. Description: β-ribosidase inhibition assay with DHF-riboside substrate, whole cells. It counts as cell-based, Salmonella sp.35664. As to the method:
as §1, §2
In the case of compound 7, no inhibition is also observed for the 3.8 μg/μL inhibitor concentration. There are only minor differences for the inhibitory properties of the two compounds at the higher concentrations.
as §3

A further test concerns E. faecalis 29212. As to the kind of experiment: antibacterial activity, standard MIC testing procedure. In kind it is cell-based. As to the method:
(§4) It was assayed according to the standard MIC testing procedure for antimicrobials.

The next test relates to E. faecalis 51299. The description is as above. It counts as cell-based. As to the method: as §4
A further test has as its system S. aureus 43300. The description is as above. It counts as cell-based. The method, then: as §4

For `O[C@H]1[C@@H](O)CN2c3ccccc3SC[C@@H]12` [Compound 6, 2(S),3(R),4(S)-dihydroxy-2,3,3a,4-tetrahydro-1H-pyrrolo-[2,1-c][1,4]benzothiazine], the “concentration at which fifty percent inhibition was observed” value on β-ribosidase [1] (lysate) and in the test on β-ribosidase [2] (whole cell) was 7.5 µg/µL in each case. Further, the “threshold value for the inhibitor concentration over which no inhibition is observed” value in the test on β-ribosidase [1] came to 0.9 µg/µL. Also, the “inhibition of β-ribosidases” value is reported as “About 70%” in the test with β-ribosidase [1] (lysate, 15 μg/μL (67 mM), at 24 hours) and “About 70%” in the test with β-ribosidase [2] (whole cell, 15 μg/μL (67 mM), at 24 hours). Also, the “β-ribosidase inhibition activity (in words)” value in the test on β-ribosidase [2] (whole cell) is recorded as “good inhibitory activity”.
Regarding `O[C@@H]1[C@H]2CSc3ccccc3N2C[C@@H]1O` [Compound 7, 2(R)-3(R),4(S)-dihydroxy-2,3,3a,4-tetrahydro-1H-pyrrolo-[2,1-c][1,4]benzothiazine], the “β-ribosidase inhibition activity (in words)” value in the test with β-ribosidase [1] (lysate) and in the test with β-ribosidase [2] (whole cell) was “comparable” each time. In the test on β-ribosidase [1], the “threshold value for the inhibitor concentration over which no inhibition is observed” value amounted to 0.9 µg/µL. Also, the “inhibition at 3.8 μg/μL inhibitor concentration” value in the test on β-ribosidase [2] (whole cells, 3.8 μg/μL) is recorded as “no inhibition”.
With `O[C@H]1[C@@H](O)CN2CCSC[C@@H]12` [Compound 8, 7(S)-8(R),9(S)-dihydroxy-hexahydro-1H-pyrrolo-[1,4]-thiazine], the “β-ribosidase inhibition activity (in words)” value in the test with β-ribosidase [1] (lysate) and in the test with β-ribosidase [2] (whole cell) was “no significant inhibition” in each case. The inhibition at 0.49 µg/mL was 50% with E. faecalis 29212 (Enterococcus faecalis, 29212, 0.49 μg/ml, read-out: inhibition of bacterial growth); 50% in the test with E. faecalis 51299 (Enterococcus faecalis, 51299, 0.49 μg/ml, read-out: inhibition of bacterial growth); 70% in the test with S. aureus 43300 (Staphylococcus aureus, 43300, 0.49 μg/ml, read-out: inhibition of bacterial growth). Moreover, the “antibacterial activity (in words)” value in the test on E. faecalis 29212 (initial dilute concentration), in the test on E. faecalis 51299 (initial dilute concentration) and with S. aureus 43300 (initial dilute concentration) was “good inhibition” in each case.
